Source: ChEMBL document CHEMBL5634136 (Eur J Med Chem, 2023)

How the values were obtained:
[1] = Antiproliferative activity against mouse KC-0116 cells assessed as inhibition of cell growth incubated for 72 hrs by MTT assay; assay type: functional, cell-based; conditions: KC-0116, 72 h
[2] = Antiproliferative activity against mouse KC-0122 cells assessed as inhibition of cell growth incubated for 72 hrs by MTT assay; assay type: functional, cell-based; conditions: KC-0122, 72 h
[3] = Induction of apoptosis in mouse KC-0116 cells assessed as early apoptotic cells at 1 uM incubated for 48 hrs by annexin V-FITC/ PI staining based flow cytometry (reference value: 8.09 %); assay type: functional
[4] = Induction of apoptosis in mouse KC-0116 cells assessed as late apoptotic cells at 1 uM incubated for 48 hrs by annexin V-FITC/ PI staining based flow cytometry (reference value: 1 %); assay type: functional
[5] = Induction of apoptosis in mouse KC-0116 cells assessed as viable cells at 1 uM incubated for 48 hrs by annexin V-FITC/ PI staining based flow cytometry (reference value: 93.27 %); assay type: functional
[6] = Induction of apoptosis in mouse KC-0116 cells assessed as late apoptotic cells at 0.3 uM incubated for 48 hrs by annexin V-FITC/ PI staining based flow cytometry (reference value: 1 %); assay type: functional
[7] = Induction of apoptosis in mouse KC-0116 cells assessed as necrotic cells at 1 uM incubated for 48 hrs by annexin V-FITC/ PI staining based flow cytometry (reference value: 0.04 %); assay type: functional
[8] = Induction of apoptosis in mouse KC-0116 cells assessed as early apoptotic cells at 0.3 uM incubated for 48 hrs by annexin V-FITC/ PI staining based flow cytometry (reference value: 8.09 %); assay type: functional
[9] = Toxicity in BALB/c mouse xenografted with mouse KC-0116 cells assessed as change in body weight at 10 mg/kg,po administrated once daily for 10 days; assay type: organism-based; conditions: in vivo, 240 h, time 10 day
[10] = Induction of apoptosis in mouse KC-0116 cells assessed as necrotic cells at 0.3 uM incubated for 48 hrs by annexin V-FITC/ PI staining based flow cytometry (reference value: 0.04 %); assay type: functional
[11] = Induction of apoptosis in mouse KC-0116 cells assessed as viable cells at 0.3 uM incubated for 48 hrs by annexin V-FITC/ PI staining based flow cytometry (reference value: 93.27 %); assay type: functional
[12] = biological target: Epidermal growth factor receptor (Mus musculus) (UniProt Q01279); assay: Inhibition of EGFR in mouse KC-0116 cells assessed as downregulation of AKT protein expression level incubated for 24 hrs by Western blotting analysis; assay type: cell-based
Sequence of Epidermal growth factor receptor (Mus musculus) (Q01279 whole entry): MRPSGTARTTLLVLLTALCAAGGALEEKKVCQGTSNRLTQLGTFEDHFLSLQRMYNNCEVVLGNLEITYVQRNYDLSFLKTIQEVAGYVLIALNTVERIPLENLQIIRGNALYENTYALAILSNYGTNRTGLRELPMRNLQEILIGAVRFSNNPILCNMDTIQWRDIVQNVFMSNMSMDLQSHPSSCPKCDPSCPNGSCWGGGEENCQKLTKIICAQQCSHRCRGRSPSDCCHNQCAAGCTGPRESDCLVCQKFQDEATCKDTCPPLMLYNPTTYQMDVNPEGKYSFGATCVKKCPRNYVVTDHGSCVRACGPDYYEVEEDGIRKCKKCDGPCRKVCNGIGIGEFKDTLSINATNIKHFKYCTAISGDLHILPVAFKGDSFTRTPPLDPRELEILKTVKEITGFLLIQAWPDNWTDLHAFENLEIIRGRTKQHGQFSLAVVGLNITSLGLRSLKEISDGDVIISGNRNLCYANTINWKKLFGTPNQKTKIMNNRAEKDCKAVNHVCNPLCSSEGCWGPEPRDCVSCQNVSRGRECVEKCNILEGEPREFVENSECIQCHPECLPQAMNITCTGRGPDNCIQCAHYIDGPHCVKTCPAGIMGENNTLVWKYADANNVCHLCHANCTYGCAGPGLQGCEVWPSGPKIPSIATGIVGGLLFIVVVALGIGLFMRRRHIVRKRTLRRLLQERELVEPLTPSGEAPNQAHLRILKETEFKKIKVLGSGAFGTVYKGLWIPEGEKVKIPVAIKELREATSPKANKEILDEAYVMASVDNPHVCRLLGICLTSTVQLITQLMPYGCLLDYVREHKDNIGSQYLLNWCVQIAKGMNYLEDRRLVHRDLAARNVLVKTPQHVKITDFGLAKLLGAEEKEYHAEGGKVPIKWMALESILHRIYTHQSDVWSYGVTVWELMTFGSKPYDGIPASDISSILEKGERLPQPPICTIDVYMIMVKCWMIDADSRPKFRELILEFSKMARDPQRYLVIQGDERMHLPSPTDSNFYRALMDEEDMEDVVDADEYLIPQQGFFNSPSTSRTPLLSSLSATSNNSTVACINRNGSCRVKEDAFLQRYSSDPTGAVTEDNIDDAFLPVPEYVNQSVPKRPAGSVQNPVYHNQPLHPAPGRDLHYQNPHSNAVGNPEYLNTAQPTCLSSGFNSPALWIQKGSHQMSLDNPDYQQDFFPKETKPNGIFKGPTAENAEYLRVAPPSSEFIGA

[13] = biological target: Epidermal growth factor receptor (Mus musculus) (UniProt Q01279); assay: Inhibition of EGFR in mouse KC-0116 cells assessed as downregulation of ERK protein expression level incubated for 24 hrs by Western blotting analysis; assay type: cell-based
[14] = biological target: Epidermal growth factor receptor (Mus musculus) (UniProt Q01279); assay: Inhibition of EGFR in mouse KC-0122 cells assessed as downregulation of AKT protein expression level incubated for 24 hrs by Western blotting analysis; assay type: cell-based
[15] = biological target: Epidermal growth factor receptor (Mus musculus) (UniProt Q01279); assay: Inhibition of EGFR in mouse KC-0116 cells assessed as downregulation of EGFR phosphorylation level incubated for 24 hrs by Western blotting analysis; assay type: cell-based
A-431 = assay: Antiproliferative activity against human A-431 cells harboring wild type EGFR assessed as inhibition of cell growth incubated for 72 hrs by MTT assay; assay type: functional, cell-based; conditions: A-431, 72 h
[16] = biological target: Epidermal growth factor receptor (Mus musculus) (UniProt Q01279); assay: Inhibition of EGFR in mouse KC-0122 cells assessed as downregulation of EGFR phosphorylation level incubated for 24 hrs by Western blotting analysis; assay type: cell-based
HCC827 = assay: Antiproliferative activity against human HCC827 cells harboring EGFR Del19 mutant assessed as inhibition of cell growth incubated for 72 hrs by MTT assay; assay type: functional, cell-based; conditions: HCC827, 72 h
NCI-H1975 = assay: Antiproliferative activity against human NCI-H1975 cells harboring EGFR L858R/T790M mutant assessed as inhibition of cell growth incubated for 72 hrs by MTT assay; assay type: functional, cell-based; conditions: NCI-H1975, 72 h
HepG2 = assay: Antiproliferative activity against human HepG2 cells harboring VEGFR assessed as inhibition of cell growth incubated for 72 hrs by MTT assay; assay type: functional, cell-based; conditions: HepG2, 72 h
[17] = biological target: Epidermal growth factor receptor (Mus musculus) (UniProt Q01279); assay: Inhibition of EGFR in mouse KC-0122 cells assessed as downregulation of ERK protein expression level incubated for 24 hrs by Western blotting analysis; assay type: cell-based

COc1cc2c(cc1Nc1nccc(-c3cn(C)c4ccccc34)n1)NC(=O)CCCCCN2CCN(C)C
IC50 [1]: 2360 nM
IC50 [2]: 2840 nM

CN1CCN(c2ccc(Nc3nccc(-c4cn(C)c5ccccc45)n3)cc2)CC1
IC50 [1]: 380 nM
IC50 [2]: 540 nM

COc1cc(N2CCC(N3CCN(C)CC3)CC2)ccc1Nc1ncc(Cl)c(Nc2ccccc2P(C)(C)=O)n1 [BRIGATINIB]
Activity [3]: 26.61%
Activity [4]: 7.32%
Activity [5]: 65.74%
Activity [6]: 1.71%
Activity [7]: 0.32%
IC50 [1]: 350 nM
Activity [8]: 6.75%
Activity [9]: Non-Toxic
Activity [10]: 0.01%
IC50 [2]: 450 nM
Activity [11]: 92.51%

CN(C)CCOc1ccc(Nc2nccc(-c3cn(C)c4ccccc34)n2)cc1
IC50 [1]: 1290 nM
IC50 [2]: 1750 nM

CN(C)C1CCN(c2ccc(Nc3nccc(-n4cc(NC(=O)c5ccccc5)cn4)n3)cc2NS(C)(=O)=O)CC1
IC50 [1]: 520 nM
IC50 [2]: 490 nM

CC(=O)N1CCN(c2ccc(Nc3nccc(-c4cn(C)c5ccccc45)n3)cc2)CC1
IC50 [1]: 1050 nM
IC50 [2]: 1500 nM

COc1cc(OCCN(C)C)c(NC(=O)CN)cc1Nc1nccc(-c2cn(C)c3ccccc23)n1
IC50 [1]: 1500 nM
IC50 [2]: 5450 nM

COc1cc(N(C)CCN(C)C)c(NC(=O)CCN)cc1Nc1nccc(-c2cn(C)c3ccccc23)n1
IC50 [1]: 1490 nM
IC50 [2]: 1630 nM

COc1cc(N2CCC(N3CCN(C)CC3)CC2)ccc1Nc1nccc(-c2cn(C)c3ccccc23)n1
IC50 [1]: 1170 nM
IC50 [2]: 1390 nM

Cn1cc(-c2ccnc(Nc3ccc(N4CCCCC4)cc3)n2)c2ccccc21
IC50 [1]: > 10000 nM
IC50 [2]: > 10000 nM

COc1ccc(NC(=O)CN)cc1Nc1nccc(-c2cn(C)c3ccccc23)n1
IC50 [1]: 3760 nM
IC50 [2]: 5280 nM

COc1cc(N(C)CCN(C)C)c(NC(=O)CO)cc1Nc1nccc(-c2cn(C)c3ccccc23)n1
IC50 [1]: 1390 nM
IC50 [2]: 3090 nM

COCC(=O)Nc1cc(Nc2nccc(-c3cn(C)c4ccccc34)n2)c(OC)cc1N1CCC(N(C)C)CC1
IC50 [1]: 460 nM
IC50 [2]: 450 nM

Cn1cc(-c2ccnc(Nc3cccc(NC(=O)CCN)c3)n2)c2ccccc21
IC50 [1]: 4990 nM
IC50 [2]: 4770 nM

COc1ccc(NC(=O)CCN)cc1Nc1nccc(-c2cn(C)c3ccccc23)n1
IC50 [1]: 1460 nM
IC50 [2]: 1230 nM

CN1CCN(C2CCN(c3ccc(Nc4nccc(-c5cn(C)c6ccccc56)n4)cc3)CC2)CC1
IC50 [1]: 840 nM
IC50 [2]: 1310 nM

CN(C)CCN(c1ccc(Nc2nccc(-c3cn(C)c4ccccc34)n2)cc1)S(C)(=O)=O
IC50 [1]: 430 nM
IC50 [2]: 500 nM

CN1CCN(C2CCN(c3ccc(Nc4nccc(-c5cn(C)c6ccccc56)n4)cc3NS(=O)(=O)C3CC3)CC2)CC1
inhibition [12]: Dose-Dependent Effect
inhibition [13]: Dose-Dependent Effect
inhibition [14]: Dose-Dependent Effect
inhibition [15]: Dose-Dependent Effect
IC50 (A-431): 2130 nM
inhibition [16]: Dose-Dependent Effect
IC50 (HCC827): 310 nM
IC50 (NCI-H1975): 1020 nM
IC50 (HepG2): 1500 nM
IC50 [1]: 170 nM
IC50 [2]: 200 nM
inhibition [17]: Dose-Dependent Effect

COc1cc(N(C)CCN(C)C)c(NC(=O)CN)cc1Nc1nccc(-c2cn(C)c3ccccc23)n1
IC50 [1]: 1320 nM
IC50 [2]: 2720 nM

CN(C)C1CCN(c2ccc(Nc3nccc(-c4cn(C)c5ccccc45)n3)cc2NC(=O)CN)CC1
IC50 [1]: 440 nM
IC50 [2]: 460 nM

Cn1cc(-c2ccnc(Nc3ccc(N4CCC(N5CCOCC5)CC4)cc3)n2)c2ccccc21
IC50 [1]: 1710 nM
IC50 [2]: 5740 nM

COc1cc(N2CCN(C)CC2)c(NC(=O)CN)cc1Nc1nccc(-c2cn(C)c3ccccc23)n1
IC50 [1]: 1650 nM
IC50 [2]: 1170 nM

CN(C)C1CCN(c2ccc(Nc3nccc(-c4cn(C)c5ccccc45)n3)cc2)CC1
IC50 [1]: 400 nM
IC50 [2]: 450 nM

COc1cc(N(C)CCN(C)C)c(NC(=O)CNC(C)=O)cc1Nc1nccc(-c2cn(C)c3ccccc23)n1
IC50 [1]: 1980 nM
IC50 [2]: 1450 nM

COc1cc(N(C)CCN(C)C)c(NC(=O)CNS(C)(=O)=O)cc1Nc1nccc(-c2cn(C)c3ccccc23)n1
IC50 [1]: 1550 nM
IC50 [2]: 1170 nM

C=CC(=O)Nc1cc(Nc2nccc(-c3cn(C)c4ccccc34)n2)c(OC)cc1N(C)CCN(C)C [OSIMERTINIB]
IC50 (HCC827): 1 nM
IC50 (HepG2): 3060 nM
IC50 [1]: 1420 nM

COc1cc(N(C)CCN(C)C)ccc1Nc1nccc(-c2cn(C)c3ccccc23)n1
IC50 [1]: 1760 nM
IC50 [2]: 1610 nM

COc1cc(N2CCC(N(C)C)CC2)c(NC(=O)CO)cc1Nc1nccc(-c2cn(C)c3ccccc23)n1
IC50 [1]: 460 nM
IC50 [2]: 480 nM

COc1cc(N(C)CCN(C)C)c(NC(=O)CNC(=O)OC(C)(C)C)cc1Nc1nccc(-c2cn(C)c3ccccc23)n1
IC50 [1]: 1290 nM
IC50 [2]: 1280 nM

Cn1cc(-c2ccnc(Nc3ccc(N4CCOCC4)cc3)n2)c2ccccc21
IC50 [1]: 7000 nM
IC50 [2]: > 10000 nM

CN(C)CCN(C)c1ccc(Nc2nccc(-c3cn(C)c4ccccc34)n2)cc1
IC50 [1]: 1060 nM
IC50 [2]: 1550 nM

Cn1cc(-c2ccnc(Nc3cccc(NS(=O)(=O)C4CC4)c3)n2)c2ccccc21
IC50 [1]: 580 nM
IC50 [2]: 1200 nM

CN(C)C1CCN(c2ccc(Nc3nccc(-c4cn(C)c5ccccc45)n3)cc2NS(=O)(=O)C2CC2)CC1
IC50 (A-431): 2490 nM
IC50 (HCC827): 220 nM
IC50 (NCI-H1975): 1420 nM
IC50 (HepG2): 1920 nM
IC50 [1]: 240 nM
IC50 [2]: 250 nM
